In data set [1] the test system is Mycosphaerella graminicola (Septoria tritici). Put plainly: Mycosphaerella graminicola (Septoria tritici) on wheat / preventative. It is filed as in vivo. The settings on record: Zymoseptoria tritici, wheat plants cv. Riband, preventative spray, 16 to 19 days after application, read-out: control of Mycosphaerella graminicola compared to untreated control.
Data set [2] has as its system Botryotinia fuckeliana (Botrytis cinerea). The data set can be described thus: Botryotinia fuckeliana (Botrytis cinerea) / liquid culture (Gray mould). Format: cell-based. The settings on record: liquid culture Vogels broth, 3-4 days after application, read-out: control of Botryotinia fuckeliana (inhibition of growth, photometric).
The subject of data set [3] is Glomerella lagenarium (Colletotrichum lagenarium). Put plainly: Glomerella lagenarium (Colletotrichum lagenarium) / liquid culture (Anthracnose). Format: cell-based. The settings on record: Colletotrichum orbiculare, liquid culture PDB, 3-4 days after application, read-out: control of Glomerella lagenarium (inhibition of growth, photometric).
For data set [4], the system named is Mycosphaerella graminicola (Septoria tritici). The data set can be described thus: Comparative: Mycosphaerella graminicola (Septoria tritici) on wheat / preventative, emulsifiable concentrate. Particulars: rate of application 60 ppm, Mycosphaerella graminicola on wheat cv. Riband, 16 to 19 days after application. It is filed as in vivo.
In data set [5] the test system is Botrytis cinerea. The data set can be described thus: Comparative: Botrytis cinerea / tomato / preventative. Format: in vivo. Particulars: rate of application 200 ppm, Botrytis cinerea on tomato, emulsifiable concentrate, 5-6 days after application.
The test system of data set [6] is Venturia inaequalis. Put plainly: Comparative: Venturia inaequalis / apple / preventative (Scab on apple). It is filed as in vivo. Particulars: rate of application 200 ppm, Venturia inaequalis on apple seedlings, emulsifiable concentrate, 11-13 days after application.
The subject of data set [7] is Colletotrichum lagenarium. Put plainly: Comparative: Colletotrichum lagenarium / cucumber / preventative (Anthracnose). The settings on record: rate of application 200 ppm, Colletotrichum lagenarium on cucumber cv. Wisconsin, emulsifiable concentrate, 6-8 days after application. It is filed as in vivo.
Data set [8] deals with Fusarium culmorum. The data set can be described thus: microbe, parasite or virus in culture. The settings on record: read-out: control of Fusarium culmorum (inhibition of growth, photometric). It is filed as cell-based.
The test system of data set [9] is Monographella nivalis (Microdochium nivale). Put plainly: Monographella nivalis (Microdochium nivale) / liquid culture (foot rot cereals). It is filed as cell-based. The settings on record: liquid culture PDB, 4 to 5 days after application, read-out: control of Monographella nivalis (inhibition of growth, photometric).

Structures are written as SMILES. A value given as a limit tells only on which side of the number the result lay.

Three molecules from US20240208962A1, “MICROBIOCIDAL QUINOLINE/QUINOXALINE BENZOTHIAZINE DERIVATIVES” (SYNGENTA CROP PROTECTION AG, priority 2021, published 2024) can be followed below.

A word on the inhibition: it is the share of the control response that was lost under treatment. In general, melting point refers to the temperature, or range, at which the solid turns liquid. With `Cc1cccc2c1SC(C)(C)N=C2c1cnc2c(F)c(F)ccc2c1` [Compound E.01, 4-(7,8-difluoro-3-quinolyl)-2,2,8-trimethyl-1,3-benzothiazine], the melting point lay in the range of 137 to 139 °C. Also, the pest or weed control at 60 ppm in data set [1] was ≥ 80%. The inhibition at 20 ppm in data set [2] was ≥ 80%. Further, the inhibition at 20 ppm in [3] was ≥ 80%. In addition, in data set [4], the “Efficacy (% control)” value is 72 % control. Besides, in data set [5], the “Efficacy (% control)” value is reported as 97 % control. In addition, in data set [6], the “Efficacy (% control)” value worked out at 97 % control. In addition, in [7], the “Efficacy (% control)” value was found to be 97 % control.

As to `CC1(C)N=C(c2cnc3c(F)c(F)ccc3c2)c2cccc(Cl)c2S1` [Compound E.02, 8-chloro-4-(7,8-difluoro-3-quinolyl)-2,2-dimethyl-1,3-benzothiazine], the melting point fell in the range of 134 to 136 °C. Also, the pest or weed control at 60 ppm in data set [1] was ≥ 80%. The inhibition at 20 ppm in data set [2] is ≥ 80%. The inhibition at 20 ppm in data set [3] is ≥ 80%. In addition, the “Efficacy (% control)” value in data set [4] was 99 % control. In addition, the “Efficacy (% control)” value in data set [5] is given as 95 % control. Moreover, the “Efficacy (% control)” value in data set [6] is 97 % control. The “Efficacy (% control)” value in data set [7] is 97 % control.

In turn, `CC1(C)N=C(c2cnc3c(F)cccc3c2)c2cccc(Cl)c2S1` [Compound E.12, 8-chloro-4-(8-fluoro-3-quinolyl)-2,2-dimethyl-1,3-benzothiazine] returned a melting point of 158 to 160 °C. Further, the pest or weed control at 60 ppm in data set [1] was ≥ 80%. Also, the inhibition at 20 ppm in data set [8] is ≥ 80%. The inhibition at 20 ppm in [9] was ≥ 80%. Besides, in data set [2], the inhibition at 20 ppm is ≥ 80%. Moreover, the inhibition at 20 ppm in [3] is ≥ 80%. Also, in data set [4], the “Efficacy (% control)” value is listed as 92 % control. The “Efficacy (% control)” value in data set [5] worked out at 95 % control. In addition, the “Efficacy (% control)” value in data set [6] is recorded as 100 % control. In [7], the “Efficacy (% control)” value came out at 100 % control.
